Values quoted from earlier work as cited in patent US20050277634A1, “Liquid composition for veterinary medicine and process for the preparation and use thereof” (Boehringer Ingelheim Vetmedica GmbH, priority 2004, published 2005).

Conditions: injectable solution, subcutaneous administration

Cc1cnc(NC(=O)C2=C(O)c3ccccc3S(=O)(=O)N2C)s1 [meloxicam]
Bioavailability: fully bioavailable
Time to maximum plasma concentrations: after a few hours
